For this assay, the target named is notum carboxyesterase enzyme (Homo sapiens (Human), UniProt Q6P988). The assay is described as follows: Biochemical Notum Enzymatic Activity Assay (OPTS substrate, fluorescence). The note with it: 2 μM OPTS solution, 2.38 nM notum enzyme solution, 1 hour incubation at room temperature, fluorescence ex 485 nm / em 520 nm; n≥2. An excerpt:
Plate layout and measured fluorescence values were input into Dotmatics Studies data management tool.

Drawing on patent publication US11634391B2, “Compounds which are inhibitors of Notum” (UCL BUSINESS LTD, priority 2018, dated 2023), this text covers IC50 for 54 compounds.

The structures appear in SMILES notation. pIC50: −log10 of the molar value. Counter-ions that a name gives are not always drawn.

Chain of notum carboxyesterase enzyme (Q6P988 20-496): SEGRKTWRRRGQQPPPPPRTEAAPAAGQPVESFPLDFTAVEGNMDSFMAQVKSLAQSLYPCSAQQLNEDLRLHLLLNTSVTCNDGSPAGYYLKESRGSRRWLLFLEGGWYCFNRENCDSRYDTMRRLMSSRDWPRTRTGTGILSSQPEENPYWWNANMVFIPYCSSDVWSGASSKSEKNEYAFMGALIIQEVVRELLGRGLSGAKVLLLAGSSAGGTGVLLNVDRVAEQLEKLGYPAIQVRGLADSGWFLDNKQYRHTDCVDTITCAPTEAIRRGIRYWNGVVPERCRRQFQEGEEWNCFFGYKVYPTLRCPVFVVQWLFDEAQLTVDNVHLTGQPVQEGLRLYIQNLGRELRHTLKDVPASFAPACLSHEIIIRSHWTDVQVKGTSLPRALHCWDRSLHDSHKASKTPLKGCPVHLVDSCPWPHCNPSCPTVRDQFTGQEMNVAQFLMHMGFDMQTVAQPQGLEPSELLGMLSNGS

Turning to `FC(F)(F)c1c(Cl)cnc(-n2ccnn2)c1Cl` [Compound 307, 3,5-dichloro-2-(triazol-1-yl)-4-(trifluoromethyl)pyridine], the pIC50 is 8.09.

Consider `Clc1ccc(-c2nnco2)cn1` [Compound 124, 2-(6-chloropyridin-3-yl)-1,3,4-oxadiazole], for which the pIC50 was 4.89.

Take `[2H]C([2H])([2H])Oc1nnc(-c2ccc(Cl)c(C(F)(F)F)c2Cl)o1` [Compound 241, 2-(2,4-dichloro-3-(trifluoromethyl)phenyl)-5-(methoxy-d3)-1,3,4-oxadiazole]: the pIC50 is 8.44.

Consider `OCc1cn(-c2ccc(Cl)c(OCC3CC3)c2)nn1` [Compound 18, (1-(4-chloro-3-(cyclopropylmethoxy)phenyl)-1H-1,2,3-triazol-4-yl)methanol], for which the negative-log IC50 (pIC50) is less than 5.00.

For the compound `OCc1cn(-c2cccc(C(F)(F)F)c2)nn1` [Compound 275, (1-(3-(trifluoromethyl)phenyl)-1H-1,2,3-triazol-4-yl)methanol], the pIC50 is 5.65.

Regarding `Oc1nnc(-c2ccc(C3CC3)nc2)o1` [Compound 209, 5-(6-cyclopropyl-3-pyridyl)-1,3,4-oxadiazol-2-ol], the pIC50 was 4.36.

`CC(O)c1cn(-c2ccc(Cl)c(Cl)c2)nn1` (stereo not drawn) [Compound 40, 1-(1-(3,4-dichlorophenyl)-1H-1,2,3-triazol-4-yl)ethan-1-ol] gave a pIC50 of less than 5.00.

`FC(F)(F)c1c(Cl)ccc(-c2c[nH]nn2)c1Cl` [Compound 306, 4-[2,4-dichloro-3-(trifluoromethyl)phenyl]-1H-triazole]: the pIC50 is 8.54.

In the case of `Clc1ccc(-n2cnnn2)cc1` [Compound 216, 1-(4-chlorophenyl)tetrazole], the negative-log IC50 (pIC50) was 4.57.

Consider `NCc1cn(-c2ccc(Cl)c(Cl)c2)nn1` [Compound 31, (1-(3,4-dichlorophenyl)-1H-1,2,3-triazol-4-yl)methanamine], for which the pIC50 was 5.05. This pIC50 lies 0.48 log units higher than the previous one.

With `Cc1cc(C)cc(-n2cnnn2)c1` [Compound 194, 1-(3,5-dimethylphenyl)tetrazole], the pIC50 is 5.49. This pIC50 is 0.44 log units higher than that of the compound before.

As for `OCc1cn(-c2cc(Cl)ccc2Cl)nn1` [Compound 26, (1-(2,5-dichlorophenyl)-1H-1,2,3-triazol-4-yl)methanol], the pIC50 was 4.59.

The compound `Cc1nnc(-c2ccc(C3CC3)c(C(F)(F)F)c2)o1` [Compound 190, 2-[4-cyclopropyl-3-(trifluoromethyl)phenyl]-5-methyl-1,3,4-oxadiazole] showed a pIC50 of 7.05. This pIC50 is 2.46 log units higher than that of the compound before.

`Clc1ccc(-c2n[nH]c(-c3ccccn3)n2)cc1Cl` [Compound 130, 2-(3-(3,4-dichlorophenyl)-1H-1,2,4-triazol-5-yl)pyridine] had a pIC50 of 6.22.

Compound `Fc1cc(F)cc(-c2cc[nH]n2)c1` [Compound 56, 3-(3,5-difluorophenyl)-1H-pyrazole] gave a pIC50 of 4.64.

`FC(F)(F)c1cc(-n2ccnn2)cc(Cl)c1Cl` [Compound 309, 1-[3,4-dichloro-5-(trifluoromethyl)phenyl]triazole]: the pIC50 is 6.97.

With `Nc1nnc(-c2ccccc2)o1` [Compound 137, 5-phenyl-1,3,4-oxadiazol-2-amine], the pIC50 was 4.48. Compared with the last compound, the pIC50 is 2.49 log units lower.

Turning to `OCc1cn(-c2ccc(C(F)(F)F)cc2)nn1` [Compound 271, (1-(4-(trifluoromethyl)phenyl)-1H-1,2,3-triazol-4-yl)methanol], the pIC50 is 5.06.

Regarding `FC(F)(F)c1c(Cl)ccc(-n2cnnc2)c1Cl` [Compound 300, 4-(2,4-dichloro-3-(trifluoromethyl)phenyl)-4H-1,2,4-triazole], the pIC50 is 5.88.

Turning to `O=c1cccc(-c2ccccc2)[nH]1` [Compound 237, 6-phenylpyridin-2(1H)-one], the pIC50 was 4.30.

As for `CN(C)c1nnc(-c2ccc(Cl)c(C(F)(F)F)c2Cl)o1` [Compound 247, 5-(2,4-dichloro-3-(trifluoromethyl)phenyl)-N,N-dimethyl-1,3,4-oxadiazol-2-amine], the pIC50 was 6.36.

For `OCc1cn(-c2ccc(Cl)c(C3CC3)c2)nn1` [Compound 276, (1-(4-chloro-3-cyclopropylphenyl)-1H-1,2,3-triazol-4-yl)methanol], the pIC50 was 5.97.

`FC(F)(F)c1cc(-c2nnco2)ccc1C1COC1` [Compound 284, 2-(4-(oxetan-3-yl)-3-(trifluoromethyl)phenyl)-1,3,4-oxadiazole] had a pIC50 of 5.39. Compared with the last compound, the pIC50 is 0.58 log units lower.

The compound `OCc1cn(-c2ccc(Cl)c(OCc3ccccc3)c2)nn1` [Compound 17, (1-(3-(benzyloxy)-4-chlorophenyl)-1H-1,2,3-triazol-4-yl)methanol] gave a negative logarithm of the IC50 (pIC50) of 5.24.

In the case of `OCc1cn(-c2ccccc2F)nn1` [Compound 273, (1-(2-Fluorophenyl)-1H-1,2,3-triazol-4-yl)methanol], the pIC50 is 4.20.

The compound `Cn1nc(-c2ccc(Cl)cc2)oc1=O` [Compound 229, 5-(4-chlorophenyl)-3-methyl-1,3,4-oxadiazol-2(3H)-one] had a negative logarithm of the IC50 (pIC50) of 4.58.

With `FC(F)(F)c1cc(-c2nnco2)ccn1` [Compound 222, 2-[2-(trifluoromethyl)-4-pyridyl]-1,3,4-oxadiazole], the pIC50 is 5.09.

`CC(C)c1ccc(-n2ccnn2)cc1` [Compound 60, 1-(4-isopropylphenyl)-1H-1,2,3-triazole] had a pIC50 of 6.00.

With `CCOc1cccc(-c2nnc(N)s2)c1` [Compound 48, 5-(3-ethoxyphenyl)-1,3,4-thiadiazol-2-amine], the negative logarithm of the IC50 (pIC50) was 4.07. This pIC50 lies 1.93 log units lower than the previous one.

Regarding `FC(F)(F)c1ccc(-c2nnco2)cc1C1COC1` [Compound 181, 2-[3-(oxetan-3-yl)-4-(trifluoromethyl)phenyl]-1,3,4-oxadiazole], the pIC50 is 6.59.

The compound `OCc1cn(-c2ccc(Cl)c(Cl)c2)cn1` [Compound 127, [1-(3,4-dichlorophenyl)imidazol-4-yl]methanol] showed a pIC50 of 5.23.

`Clc1ccc(-n2cnnn2)cc1Cl` [Compound 214, 1-(3,4-dichlorophenyl)tetrazole]: the pIC50 was 5.81.

Compound `FC(F)(F)c1cccc(-c2nnco2)n1` [Compound 221, 2-[6-(trifluoromethyl)-2-pyridyl]-1,3,4-oxadiazole] showed a pIC50 of 4.08. This pIC50 lies 1.73 log units lower than the previous one.

With `Fc1ccc(-c2cc[nH]n2)cc1F` [Compound 53, 3-(3,4-difluorophenyl)-1H-pyrazole], the pIC50 was 4.78.

With `FC(F)(F)c1cc(-n2ccnn2)ccc1Cl` [Compound 175, 1-[4-chloro-3-(trifluoromethyl)phenyl]triazole], the pIC50 is 7.00.

`FC(F)(F)c1cc(-c2nnco2)cc(C2COC2)c1` [Compound 188, 2-[3-(oxetan-3-yl)-5-(trifluoromethyl)phenyl]-1,3,4-oxadiazole] had a negative logarithm of the IC50 (pIC50) of 4.61.

Compound `CN(C)Cc1cn(-c2ccc(Cl)c(Cl)c2)nn1` [Compound 44, 1-(1-(3,4-dichlorophenyl)-1H-1,2,3-triazol-4-yl)-N,N-dimethylmethanamine hydrochloride] showed a pIC50 of 4.13. Against the preceding compound, the pIC50 is 0.48 log units lower.

`OCc1nnc(-c2ccc(Cl)c(C(F)(F)F)c2)o1` [Compound 296, (5-(4-chloro-3-(trifluoromethyl)phenyl)-1,3,4-oxadiazol-2-yl)methanol]: the pIC50 was 6.85.

For the compound `Cn1nc(-c2ccc(Cl)c(C(F)(F)F)c2Cl)oc1=O` [Compound 245, 5-(2,4-dichloro-3-(trifluoromethyl)phenyl)-3-methyl-1,3,4-oxadiazol-2(3H)-one], the pIC50 was 7.17.

`OCc1cn(-c2ccc(Cl)c(OC(F)(F)F)c2)nn1` [Compound 270, (1-(4-chloro-3-(trifluoromethoxy)phenyl)-1H-1,2,3-triazol-4-yl)methanol] gave a pIC50 of 6.16. Compared with the last compound, the pIC50 is 1.01 log units lower.

As to `Nc1nc(-c2ccccc2)no1` [Compound 141, 3-phenyl-1,2,4-oxadiazol-5-amine], the pIC50 was 4.15.

In turn, `CNc1nnc(-c2ccc(Cl)c(C(F)(F)F)c2Cl)o1` [Compound 249, 5-(2,4-dichloro-3-(trifluoromethyl)phenyl)-N-methyl-1,3,4-oxadiazol-2-amine] gave a pIC50 of 7.50. This pIC50 lies 3.35 log units higher than the previous one.

`FC(F)(F)c1cccc(-n2cnnn2)c1` [Compound 213, 1-[3-(trifluoromethyl)phenyl]tetrazole]: the pIC50 is 5.31. This pIC50 is 2.19 log units lower than that of the compound before.

In turn, `OCc1cn(-c2ccc(Cl)c(C(F)(F)F)c2Cl)nn1` [Compound 277, [1-[2,4-dichloro-3-(trifluoromethyl)phenyl]triazol-4-yl]methanol] had a pIC50 of 8.02.

As to `OCc1cn(-c2ccc3ccccc3c2)nn1` [Compound 3, (1-(naphthalen-2-yl)-1H-1,2,3-triazol-4-yl)methanol], the pIC50 is 5.89.

`CC(O)c1cn(-c2ccc(Cl)c(C(F)(F)F)c2Cl)nn1` (stereo not drawn) [Compound 310, 1-[1-[2,4-dichloro-3-(trifluoromethyl)phenyl]triazol-4-yl]ethanol] gave a pIC50 of 5.74.

The compound `OCc1nnc(-c2ccc(Cl)c(Cl)c2)o1` [Compound 126, [5-(3,4-dichlorophenyl)-1,3,4-oxadiazol-2-yl]methanol] had a negative-log IC50 (pIC50) of 6.14.

On to `Cc1ccc(-n2cc(CO)nn2)cc1C` [Compound 5, (1-(3,4-dimethylphenyl)-1H-1,2,3-triazol-4-yl)methanol], for which the pIC50 is 6.09.

Consider `NCc1cn(-c2cc(Cl)cc(Cl)c2)nn1` [Compound 36, (1-(3,5-dichlorophenyl)-1H-1,2,3-triazol-4-yl)methanamine hydrochloride], for which the negative-log IC50 (pIC50) is 4.35.

For `CN1CC(C)(C)c2cc(-c3nnc(O)o3)ccc21` [Compound 180, 5-(1,3,3-trimethylindolin-5-yl)-1,3,4-oxadiazol-2-ol], the negative-log IC50 (pIC50) is 7.46.

In turn, `FC(F)(F)c1cc(-c2c[nH]nn2)ccc1Cl` [Compound 50, 4-(4-chloro-3-(trifluoromethyl)phenyl)-1H-1,2,3-triazole] had a pIC50 of 7.71.

As for `Clc1ccc(-c2cc[nH]n2)cc1Cl` [Compound 55, 3-(3,4-dichlorophenyl)-1H-pyrazole], the negative logarithm of the IC50 (pIC50) was 5.29.

`OCc1cc(-c2ccc(Cl)cc2)[nH]n1` [Compound 171, [5-(4-chlorophenyl)-1H-pyrazol-3-yl]methanol] had a negative-log IC50 (pIC50) of less than 5.00.

The compound `COCc1cn(-c2ccc(Cl)c(Cl)c2)nn1` [Compound 43, 1-(3,4-dichlorophenyl)-4-(methoxymethyl)-1H-1,2,3-triazole] showed a pIC50 of 5.30.

As usually defined, the pIC50 is the negative decadic logarithm of the IC50, by convention in mol/L. Higher therefore signals a small IC50.
